From ChEMBL document CHEMBL1201862, “PubChem BioAssay data set” (2004)
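Assay format: 96-well plates, 48-hour exposure. Here, GI50 denotes the concentration required for 50% inhibition of growth.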 Active and inactive are the calls of the source. Cut-off read from the data, not from the text of the source: active = GI50 up to about 1.1 µM and inactive = higher.

Legend:
Test in all cases: NCI tumour cell line growth inhibition, 48 h
HT-29 = test system: HT-29
SK-OV-3 = test system: SK-OV-3
OVCAR-4 = test system: OVCAR-4
OVCAR-5 = test system: OVCAR-5
MCF7 = test system: MCF7
CAKI-1 = test system: CAKI-1
COLO 205 = test system: COLO 205
Malme-3M = test system: Malme-3M
MDA-MB-435 = test system: MDA-MB-435
HCT-116 = test system: HCT-116
HCT-15 = test system: HCT-15
K562 = test system: K562
SNB-75 = test system: SNB-75
MDA-N = test system: MDA-N
LOX IMVI = test system: LOX IMVI
IGROV-1 = test system: IGROV-1
RXF 393 = test system: RXF 393
HOP-62 = test system: HOP-62
CCRF-CEM = test system: CCRF-CEM

`CC1=NN(c2ccccc2Cl)C2(C1)C(Cl)C(=O)N2c1nc2ccccc2s1` (stereo unspecified) was tested, and the GI50 (HT-29) was 51.5 µM (inactive), the GI50 (SK-OV-3) was 24.7 µM (inactive) and the GI50 (OVCAR-4) was > 100 µM (inactive). The GI50 (OVCAR-5) was > 100 µM (inactive), the GI50 (MCF7) was 44.8 µM (inactive) and the GI50 (CAKI-1) was 50.2 µM (inactive). For the same compound, the GI50 (COLO 205) was 61.1 µM (inactive), the GI50 (Malme-3M) was 92.5 µM (inactive) and the GI50 (MDA-MB-435) was 41.8 µM (inactive). For the same compound, the GI50 (HCT-116) was 44.9 µM (inactive), the GI50 (HCT-15) was 44.3 µM and the GI50 (K562) was 37.5 µM (inactive). For the same compound, the GI50 (SNB-75) was 20.8 µM (inactive), the GI50 (MDA-N) was 62.7 µM (inactive) and the GI50 (LOX IMVI) was 15.5 µM (inactive). For the same compound, the GI50 (IGROV-1) was 42.1 µM (inactive), the GI50 (RXF 393) was 39.1 µM (inactive) and the GI50 (HOP-62) was 29.2 µM (inactive).
In the case of `O=c1nc2n(cc1/C=C\Br)C1CC(O)C(CO2)O1` (stereo unspecified), the GI50 (HT-29) is reported as > 100 µM (inactive), the GI50 (SK-OV-3) is reported as > 100 µM (inactive) and the GI50 (OVCAR-4) is reported as > 100 µM (inactive). The GI50 (OVCAR-5) was > 100 µM (inactive), the GI50 (MCF7) was > 100 µM (inactive) and the GI50 (CAKI-1) was > 100 µM (inactive). For the same compound, the GI50 (COLO 205) was > 100 µM (inactive), the GI50 (Malme-3M) was > 100 µM (inactive) and the GI50 (MDA-MB-435) was > 100 µM (inactive). The GI50 (HCT-116) was > 100 µM (inactive), the GI50 (CCRF-CEM) was 36.7 µM (inactive) and the GI50 (HCT-15) was greater than 100 µM. For the same compound, the GI50 (K562) was 5.16 µM (inactive), the GI50 (SNB-75) was > 100 µM (inactive) and the GI50 (MDA-N) was > 100 µM (inactive). For the same compound, the GI50 (LOX IMVI) was > 100 µM (inactive), the GI50 (IGROV-1) was > 100 µM (inactive) and the GI50 (RXF 393) was 25 µM (inactive). For the same compound, the GI50 (HOP-62) was > 100 µM (inactive).
For `CC1CN=C(Nc2cccc(F)c2)S1` (stereo unspecified), the GI50 (HT-29) was > 100 µM (inactive), the GI50 (SK-OV-3) was > 100 µM (inactive) and the GI50 (OVCAR-4) was > 100 µM (inactive). For the same compound, the GI50 (OVCAR-5) was > 100 µM (inactive), the GI50 (MCF7) was > 100 µM (inactive) and the GI50 (CAKI-1) was > 100 µM (inactive). The GI50 (COLO 205) was > 100 µM (inactive), the GI50 (Malme-3M) was > 100 µM (inactive) and the GI50 (MDA-MB-435) was > 100 µM (inactive). For the same compound, the GI50 (HCT-116) was > 100 µM (inactive), the GI50 (CCRF-CEM) was 91 µM (inactive) and the GI50 (HCT-15) was greater than 100 µM. For the same compound, the GI50 (K562) was > 100 µM (inactive), the GI50 (SNB-75) was > 100 µM (inactive) and the GI50 (MDA-N) was > 100 µM (inactive). The GI50 (LOX IMVI) was > 100 µM (inactive), the GI50 (IGROV-1) was > 100 µM (inactive) and the GI50 (RXF 393) was > 100 µM (inactive). For the same compound, the GI50 (HOP-62) was > 100 µM (inactive).
In the case of `COC(=O)/C(C#N)=C(\Nc1ccccc1)N1CCCCC1`, the GI50 (HT-29) is reported as > 100 µM (inactive), the GI50 (SK-OV-3) is reported as > 100 µM (inactive) and the GI50 (OVCAR-4) is reported as > 100 µM (inactive). The GI50 (OVCAR-5) was > 100 µM (inactive), the GI50 (MCF7) was > 100 µM (inactive) and the GI50 (CAKI-1) was > 100 µM (inactive). The GI50 (COLO 205) was > 100 µM (inactive), the GI50 (Malme-3M) was > 100 µM (inactive) and the GI50 (MDA-MB-435) was > 100 µM (inactive). The GI50 (HCT-116) was > 100 µM (inactive), the GI50 (HCT-15) was greater than 100 µM and the GI50 (K562) was > 100 µM (inactive). The GI50 (SNB-75) was > 100 µM (inactive), the GI50 (MDA-N) was > 100 µM (inactive) and the GI50 (LOX IMVI) was > 100 µM (inactive). For the same compound, the GI50 (IGROV-1) was > 100 µM (inactive), the GI50 (RXF 393) was > 100 µM (inactive) and the GI50 (HOP-62) was > 100 µM (inactive).
`CC(C)CCOC(=O)NC(Nc1ccc(F)cc1)(C(F)(F)F)C(F)(F)F` was tested, and the GI50 (HT-29) was 39.8 µM (inactive), the GI50 (SK-OV-3) was 63 µM (inactive) and the GI50 (OVCAR-5) was 97.3 µM (inactive). For the same compound, the GI50 (MCF7) was 23.2 µM (inactive), the GI50 (CAKI-1) was 19.5 µM (inactive) and the GI50 (COLO 205) was 18.3 µM (inactive). For the same compound, the GI50 (Malme-3M) was > 100 µM (inactive), the GI50 (MDA-MB-435) was 13.7 µM (inactive) and the GI50 (HCT-116) was 65.9 µM (inactive). For the same compound, the GI50 (CCRF-CEM) was 19.5 µM (inactive), the GI50 (HCT-15) was 1.68 µM and the GI50 (K562) was 0.695 µM (active). The GI50 (SNB-75) was > 100 µM (inactive), the GI50 (MDA-N) was 2.81 µM (inactive) and the GI50 (LOX IMVI) was 40.9 µM (inactive). For the same compound, the GI50 (IGROV-1) was 38.2 µM (inactive), the GI50 (RXF 393) was > 100 µM (inactive) and the GI50 (HOP-62) was 37.2 µM (inactive).
`CC(C)CCn1nc(N)c2nc3ccccc3nc21` was tested, and the GI50 (HT-29) was 64.7 µM (inactive), the GI50 (SK-OV-3) was > 100 µM (inactive) and the GI50 (OVCAR-4) was > 100 µM (inactive). The GI50 (OVCAR-5) was > 100 µM (inactive), the GI50 (MCF7) was 72.8 µM (inactive) and the GI50 (CAKI-1) was 64.4 µM (inactive). For the same compound, the GI50 (Malme-3M) was > 100 µM (inactive), the GI50 (MDA-MB-435) was > 100 µM (inactive) and the GI50 (HCT-116) was 56 µM (inactive). The GI50 (CCRF-CEM) was 46.2 µM (inactive), the GI50 (HCT-15) was greater than 10 µM and the GI50 (K562) was 57.1 µM (inactive). For the same compound, the GI50 (SNB-75) was > 100 µM (inactive), the GI50 (MDA-N) was > 100 µM (inactive) and the GI50 (LOX IMVI) was > 100 µM (inactive). The GI50 (IGROV-1) was > 100 µM (inactive), the GI50 (RXF 393) was > 100 µM (inactive) and the GI50 (HOP-62) was > 100 µM (inactive).
In the case of `Clc1ccc(NCc2nnc(CCCCCCCCc3nnc(CNc4ccc(Cl)cc4)o3)o2)cc1`, the GI50 (HT-29) is reported as > 100 µM (inactive), the GI50 (SK-OV-3) is reported as > 100 µM (inactive) and the GI50 (OVCAR-4) is reported as > 100 µM (inactive). The GI50 (OVCAR-5) was > 100 µM (inactive), the GI50 (MCF7) was > 100 µM (inactive) and the GI50 (CAKI-1) was > 100 µM (inactive). For the same compound, the GI50 (COLO 205) was > 100 µM (inactive), the GI50 (Malme-3M) was > 100 µM (inactive) and the GI50 (MDA-MB-435) was > 100 µM (inactive). The GI50 (HCT-116) was > 100 µM (inactive), the GI50 (CCRF-CEM) was > 100 µM (inactive) and the GI50 (HCT-15) was greater than 100 µM. For the same compound, the GI50 (K562) was > 100 µM (inactive), the GI50 (SNB-75) was > 100 µM (inactive) and the GI50 (MDA-N) was > 100 µM (inactive). For the same compound, the GI50 (LOX IMVI) was > 100 µM (inactive), the GI50 (RXF 393) was > 100 µM (inactive) and the GI50 (HOP-62) was > 100 µM (inactive).
With `Nc1ccc(-c2nc3ccc(F)cc3s2)cc1I` the GI50 (HT-29) was 56.1 µM (inactive), the GI50 (SK-OV-3) was 97.3 µM (inactive) and the GI50 (OVCAR-5) was 0.0515 µM (active). The GI50 (MCF7) was < 0.01 µM (active), the GI50 (CAKI-1) was > 100 µM (inactive) and the GI50 (COLO 205) was > 100 µM (inactive). The GI50 (Malme-3M) was > 100 µM (inactive), the GI50 (MDA-MB-435) was > 100 µM (inactive) and the GI50 (HCT-116) was < 0.01 µM (active). The GI50 (CCRF-CEM) was > 21.2 µM (inactive), the GI50 (HCT-15) was greater than 100 µM and the GI50 (K562) was > 100 µM (inactive). For the same compound, the GI50 (SNB-75) was 30.8 µM (inactive), the GI50 (MDA-N) was > 100 µM (inactive) and the GI50 (LOX IMVI) was > 100 µM (inactive). For the same compound, the GI50 (IGROV-1) was < 0.01 µM (active), the GI50 (RXF 393) was > 26.1 µM (inactive) and the GI50 (HOP-62) was 47.1 µM (inactive).
